Measured values as given in US4539322A, “Dihydropyridine derivatives and their use in treating heart conditions and hypertension” (Pfizer Inc., priority 1982, dated 1985).
Counter-ions that a name gives are not always drawn.

Tested on: rat aorta
Experiment: Inhibition of calcium-induced contraction of isolated rat aorta strips (reduction of response to added calcium chloride in K+-containing saline)
Type: cell-based
Settings: 0.75 h; spirally cut rat aorta strips, 45 millimolar potassium, calcium 2 millimolar, test repeated with compound after 45 minutes; read-out: molar concentration of the compounds required to reduce the response by 50% (IC50)
Experimental: The ability of the compounds to inhibit the movement of calcium into the cell is shown by their effectiveness in reducing the response of isolated heart tissue to an increase in calcium ion concentration in vitro. The test is performed by mounting spirally cut strips of rat aorta with one end fixed and the other attached to a force transducer. The tissue is immersed in a bath of physiological saline solution containing potassium ion s at a concentration of 45 millimolar and no calcium. Calcium chloride is added to the bath with a pipette to give a final calcium ion concentration of 2 millimolar. The change in tension caused by the resulting contraction of the tissue is noted. The bath is drained and replaced with fresh saline solution and, after 45 minutes, the test is repeated with the particular compound under test present in the saline solution. The concentration of compound required to reduce the response by 50% is recorded.

SMILES | IC50 [nM]
CCOC(=O)C1=C(COCCN2CCN(C(=O)Nc3ccc(C(=O)OCC)cc3)CC2)NC(C)=C(C(=O)OC)C1c1ccccc1Cl (stereo not drawn) [Example 20] | 33.1
CCOC(=O)C1=C(COCCN2CCN(C(=NC#N)NC(C)C)CC2)NC(C)=C(C(=O)OC)C1c1ccccc1Cl (stereo not drawn) [Example 3] | 10
CCOC(=O)C1=C(COCCN2CCN(C(=NC#N)N(C)C)CC2)NC(C)=C(C(=O)OC)C1c1ccccc1Cl (stereo not drawn) [Example 4] | 7
CCOC(=O)C1=C(COCCN2CCN(C(=NC#N)NCCN(C)C)CC2)NC(C)=C(C(=O)OC)C1c1ccccc1Cl (stereo not drawn) [Example 6] | 100
CCOC(=O)C1=C(COCCN2CCN(C(=O)Nc3ccccc3)CC2)NC(C)=C(C(=O)OC)C1c1ccccc1Cl (stereo not drawn) [Example 15] | 5.01
CCOC(=O)CNC(=O)N1CCN(CCOCC2=C(C(=O)OCC)C(c3ccccc3Cl)C(C(=O)OC)=C(C)N2)CC1 (stereo not drawn) [Example 17] | 97
CCOC(=O)C1=C(COCCN2CCN(C(=NS(C)(=O)=O)NC)CC2)NC(C)=C(C(=O)OC)C1c1ccccc1Cl (stereo not drawn) [Example 7] | 100
CCOC(=O)NC(=S)N1CCN(CCOCC2=C(C(=O)OCC)C(c3ccccc3Cl)C(C(=O)OC)=C(C)N2)CC1 (stereo not drawn) [Example 11] | 13.8
CCCCNC(=O)N1CCN(CCOCC2=C(C(=O)OCC)C(c3ccccc3Cl)C(C(=O)OC)=C(C)N2)CC1 (stereo not drawn) [Example 19] | 15.8
CCOC(=O)C1=C(COCCN2CCN(C(=NC#N)NC)CC2)NC(C)=C(C(=O)OC)C1c1cccc(Cl)c1Cl (stereo not drawn) [Example 9] | 15.1
CCOC(=O)C1=C(COCCN2CCN(C(=O)NC3CC3)CC2)NC(C)=C(C(=O)OC)C1c1ccccc1Cl (stereo not drawn) [Example 18] | 6.92
CCOC(=O)C1=C(COCCN2CCN(C(=O)NC(C)(C)C)CC2)NC(C)=C(C(=O)OC)C1c1ccccc1Cl (stereo not drawn) [Example 12] | 2
CCOC(=O)C1=C(COCCN2CCN(C(=O)Nc3ccc(F)cc3)CC2)NC(C)=C(C(=O)OC)C1c1ccccc1Cl (stereo not drawn) [Example 21] | 21.9
CCOC(=O)C1=C(COCCN2CCN(C(=O)NC(C)C)CC2)NC(C)=C(C(=O)OC)C1c1ccccc1Cl (stereo not drawn) [Example 22] | 2.4
CCOC(=O)C1=C(COCCN2CCN(C(N)=NC#N)CC2)NC(C)=C(C(=O)OC)C1c1ccccc1Cl (stereo not drawn) [Example 5] | 100
CCOC(=O)C1=C(COCCN2CCN(C(=S)NC)CC2)NC(C)=C(C(=O)OC)C1c1ccccc1Cl (stereo not drawn) [Example 10, 4-(2-chlorophenyl)-3-ethoxycarbonyl-5-methoxy-carbonyl-6-methyl-2-[2-(4-(N-methylthiocarbamoyl)-piperazin-1-yl)ethoxymethyl]-1,4-dihydropyridine, hydrochloride salt] | 6.3
CCOC(=O)C1=C(COCCN2CCN(C(N)=O)CC2)NC(C)=C(C(=O)OC)C1c1ccccc1Cl (stereo not drawn) [Example 14] | 3.72
CCOC(=O)C1=C(COCCN2CCN(C(=O)NS(=O)(=O)c3ccc(C)cc3)CC2)NC(C)=C(C(=O)OC)C1c1ccccc1Cl (stereo not drawn) [Example 16] | 251
CCOC(=O)C1=C(COCCN2CCN(C(=O)NC)CC2)NC(C)=C(C(=O)OC)C1c1ccccc1Cl (stereo not drawn) [Example 13] | 6
CCOC(=O)C1=C(COCCN2CCN(C(=NC)NC#N)CC2)NC(C)=C(C(=O)OC)C1c1ccccc1Cl (stereo not drawn) [Example 1, 4-(2-chlorophenyl)-2-[2-[4-(N-cyano-N'-methyl-amidino)piperazin-1-yl]ethoxymethyl]-3-ethoxycarbonyl-5-methoxy-carbonyl-6-methyl-1,4-dihydropyridine, oxalate salt] | 10
CCOC(=O)C1=C(COCCN2CCN(C(=NC#N)N3CCCC3)CC2)NC(C)=C(C(=O)OC)C1c1ccccc1Cl (stereo not drawn) [Example 2] | 14

Results, then the compound that gave them:

IC50 [nM] | SMILES
89 | CCOC(=O)C1=C(COCCN2CCN(C(=O)NC)CC2)NC(C)=C(C(=O)OC)C1c1cccc2ccccc12 (stereo not drawn) [Example 70B, 3-Ethoxycarbonyl-5-methoxycarbonyl-6-methyl-2-{2-[4-(N-methylcarbamoyl)piperazin-1-yl]ethoxymethyl}4-(1-naphthyl)-1,4-dihydropyridine hydrate]
13.2 | CCOC(=O)C1=C(COCCN2CCN(C(=O)c3cccnc3)CC2)NC(C)=C(C(=O)OC)C1c1ccccc1Cl (stereo not drawn) [Example 48]
19.5 | CCOC(=O)C1=C(COCCN2CCN(C(=O)NC)CC2)NC(C)=C(C(=O)OC)C1c1ccccc1F (stereo not drawn) [Example 35]
25 | CCOC(=O)C1=C(COCCN2CCN(C(=O)NC)CC2)NC(C)=C(C(=O)OC)C1c1c(Cl)cccc1Cl (stereo not drawn) [Example 33]
85.1 | CCOC(=O)C1=C(COCCN2CCN(C(=O)c3ccco3)CC2)NC(C)=C(C(=O)OC)C1c1ccccc1Cl (stereo not drawn) [Example 44]
7.94 | CCOC(=O)C1=C(COCCN2CCN(C=O)CC2)NC(C)=C(C(=O)OC)C1c1ccccc1Cl (stereo not drawn) [Example 51, 4-(2-chlorophenyl)-3-ethoxycarbonyl-2-[2-(4-formylpiperazin-1-yl)ethoxymethyl]-5-methoxycarbonyl-6-methyl-1,4-dihydropyridine, bisoxalate salt]
13.5 | CCOC(=O)C1=C(COCC(C)N2CCN(C(=O)NC)CC2)NC(C)=C(C(=O)OC)C1c1ccccc1Cl (stereo not drawn) [Example 26]
224 | CCOC(=O)C1=C(COCC(C)N2CCNCC2)NC(C)=C(C(=O)OC)C1c1ccccc1Cl (stereo not drawn) [Example 57]
8.51 | CCOC(=O)C1=C(COCCN2CCN(C(=O)NC3CCCCC3)CC2)NC(C)=C(C(=O)OC)C1c1ccccc1Cl (stereo not drawn) [Example 23]
5.9 | CCOC(=O)C1=C(COCCN2CCN(C(=O)N3CCOCC3)CC2)NC(C)=C(C(=O)OC)C1c1ccccc1Cl (stereo not drawn) [Example 50]
14.5 | CCOC(=O)C1=C(COCCN2CCN(C(=O)Nc3cccnc3)CC2)NC(C)=C(C(=O)OC)C1c1ccccc1Cl (stereo not drawn) [Example 24]
155 | CCOC(=O)C1=C(COCCN2CCNCC2)NC(C)=C(C(=O)OC)C1c1ccccc1Cl (stereo not drawn) [Example 55, 4-(2-chlorophenyl)-3-ethoxycarbonyl-5-methoxycarbonyl-6-methyl-2-[2-(piperazin-1-yl)ethoxymethyl]-1,4-dihydropyridine]
20.4 | CCOC(=O)C1=C(COCCN2CCN(CC(=O)Nc3c(C)cccc3C)CC2)NC(C)=C(C(=O)OC)C1c1ccccc1Cl (stereo not drawn) [Example 38, 4-(2-chlorophenyl)-2-[2-[4-(N-[2,6-dimethylphenyl]carbamoylmethyl)piperazin-1-yl]ethoxymethyl]-3-ethoxycarbonyl-5-methoxycarbonyl-6-methyl-1,4-dihydropyridine]
1000 | CCOC(=O)C1=C(COCCN2CCN(C(=O)NC)CC2)NC(C)=C(C(=O)OC)C1c1nccs1 (stereo not drawn) [Example 36]
8.1 | CCOC(=O)C1=C(COCCN2CCN(C(=N)NC(=O)OC)CC2)NC(C)=C(C(=O)OC)C1c1ccccc1Cl (stereo not drawn) [Example 65]
50 | CCOC(=O)C1=C(COCCN2CCN(C(=O)NC)CC2)NC(C)=C(C(=O)OC)C1c1cc(Cl)cc(Cl)c1 (stereo not drawn) [Example 32]
10.5 | CCOC(=O)C1=C(COCCN2CCN(CC(=O)OC)CC2)NC(C)=C(C(=O)OC)C1c1ccccc1Cl (stereo not drawn) [Example 39]
3.02 | CCOC(=O)C1=C(COCCN2CCN(C(=O)[C@@H]3CCC(=O)N3)CC2)NC(C)=C(C(=O)OC)C1c1ccccc1Cl (stereo partly drawn) [Example 54, 4-(2-chlorophenyl)-3-ethoxycarbonyl-5-methoxycarbonyl-6-methyl-2-[2-(4-[l-5-oxo-pyrrolidin-2-ylcarbonyl]-piperazin-1-yl)ethoxymethyl]-1,4-dihydropyridine, hydrochloride hydrate]
15.8 | CCOC(=O)C1=C(COCCN2CCN(S(C)(=O)=O)CC2)NC(C)=C(C(=O)OC)C1c1ccccc1Cl (stereo not drawn) [Example 43]
21 | CCNC(=O)N1CCN(C(C)COCC2=C(C(=O)OCC)C(c3ccccc3Cl)C(C(=O)OC)=C(C)N2)CC1 (stereo not drawn) [Example 27]
7.9 | CCOC(=O)C1=C(COCCN2CCN(C(N)=O)CC2)NC(C)=C(C(=O)OC)C1c1cccc(Cl)c1Cl (stereo not drawn) [Example 37]
12.9 | CCOC(=O)C1=C(COCCN2CCN(C(=O)N(C)C)CC2)NC(C)=C(C(=O)OC)C1c1ccccc1Cl (stereo not drawn) [Example 41, 4-(2-chlorophenyl)-2-[2-(4-[N,N-dimethylcarbamoyl]-piperazin-1-yl)ethoxymethyl]-3-ethoxycarbonyl-5-methoxycarbonyl-6-methyl-1,4-dihydropyridine, hydrochloride salt]
2.5 | CCOC(=O)C1=C(COCCN2CCN(C(=O)NC)CC2)NC(C)=C(C(=O)OC)C1c1cccc(Cl)c1Cl (stereo not drawn) [Example 31]
17.8 | CCOC(=O)C1=C(COCCN2CCN(C(=O)NC)CC2)NC(C)=C(C(=O)OC)C1c1cccc(Cl)c1 (stereo not drawn) [Example 34]
7.76 | CCCNC(=O)N1CCN(CCOCC2=C(C(=O)OCC)C(c3ccccc3Cl)C(C(=O)OC)=C(C)N2)CC1 (stereo not drawn) [Example 25]
15 | CCOC(=O)C1=C(COCC(C)(C)N2CCN(C(=O)NC)CC2)NC(C)=C(C(=O)OC)C1c1ccccc1Cl (stereo not drawn) [Example 29]
11 | CCOC(=O)C1=C(COCCN2CCN(C(=O)NC)CC2)NC(C)=C(C(=O)OC)C1c1ccccc1C(F)(F)F (stereo not drawn) [Example 30]
42 | CCOC(=O)C1=C(COCCN2CCN(C(=NC(C)=O)NC(C)=O)CC2)NC(C)=C(C(=O)OC)C1c1ccccc1Cl (stereo not drawn) [Example 66]
10 | CCOC(=O)C(=O)N1CCN(CCOCC2=C(C(=O)OCC)C(c3ccccc3Cl)C(C(=O)OC)=C(C)N2)CC1 (stereo not drawn) [Example 45]
41.7 | CCOC(=O)C1=C(COCCN2CCN(S(N)(=O)=O)CC2)NC(C)=C(C(=O)OC)C1c1ccccc1Cl (stereo not drawn) [Example 53, 4-(2-chlorophenyl)-3-ethoxycarbonyl-5-methoxycarbonyl-6-methyl-2-[2-(4-sulphamoylpiperazin-1-yl)ethoxymethyl]-1,4-dihydropyridine, hydrochloride hydrate]
